The values that follow come from ChEMBL document CHEMBL1124736, “Novel quinuclidine-based ligands for the muscarinic cholinergic receptor” (J Med Chem, 1990).

Experiment [1] addresses T1, Muscarinic acetylcholine receptor (Rattus norvegicus) (UniProt P08482+P08483+P08485+P08911+P10980).
Description: In vitro for its ability to displace [3H]NMS from muscarinic acetylcholine receptor in rat cortical homogenates
Experiment [2] concerns the target T1, Muscarinic acetylcholine receptor (Rattus norvegicus). This is another data set of the same source.
Description: In vitro displacement of [3H]OXO-M from muscarinic acetylcholine receptor in rat cortical homogenates
Experiment [3] can be described thus: Log of the ratio of Kapp([3H]-NMS)/Kapp([3H]-OXO-M) was determined.
Experiment [4] addresses T1, Muscarinic acetylcholine receptor (Rattus norvegicus). In words: Compound was tested in vitro for its ability to displace [3H]OXO-M from Muscarinic acetylcholine receptor in rat cortical homogenates.

Each structure is given as a SMILES string.

In the case of `OC(c1ccccc1)(c1ccccc1)c1noc(C2CN3CCC2CC3)n1` (configuration not stated), the figures for the K app in experiment [1] and in experiment [2] were 0.00012 µM and 6.7e-05 µM, respectively.

In the case of `N#Cc1noc(C2CN3CCC2CC3)n1` (configuration not stated), the K app is 2.6 µM in experiment [1] and 0.043 µM in experiment [2].

In the case of `Cc1coc(C2CN3CCC2CC3)c1` (configuration not stated), the Log ratio in experiment [3] is 1.18. Also, the K app in experiment [1] is 1.4 µM; in experiment [2], 0.057 µM.

As for `NC(=O)c1noc(C2CN3CCC2CC3)n1` (configuration not stated), the K app in experiment [1] worked out at 39 µM; in experiment [2], 1.7 µM.

On to `Cc1cc(C2CN3CCC2CC3)on1` (configuration not stated), for which the Log ratio in experiment [3] was 1.59. Also, the results for the K app in experiment [1] and in experiment [2] were 1.4 µM and 0.036 µM, respectively.

`Nc1noc(C2CN3CCC2CC3)n1` (configuration not stated): the Log ratio in experiment [3] was found to be 3.08. For the same molecule, the K app in experiment [2] was found to be 0.0005 µM.

`CC(=O)Nc1noc(C2CN3CCC2CC3)n1` (configuration not stated): the K app turned out to be 23 µM in experiment [1] and 0.12 µM in experiment [2].

With `C[N+]12CCC(CC1)C(c1nc(N)no1)C2` (configuration not stated), the K app in experiment [1] was 6.6 µM; in experiment [2] it was 0.079 µM.

As for `Cc1nc(C2CN3CCC2CC3)no1` (configuration not stated), the Log ratio in experiment [3] stood at 1.73. Also, the K app in experiment [1] amounted to 2.9 µM; in experiment [2], 0.054 µM.

Turning to `Cc1nnc(C2CN3CCC2CC3)o1` (configuration not stated), the Log ratio in experiment [3] was found to be 2.11. The K app in experiment [1] turned out to be 7.5 µM; in experiment [2] it was 0.06 µM.

For `Brc1noc(C2CN3CCC2CC3)n1` (configuration not stated), the K app in experiment [1] is 0.19 µM; in experiment [2], 0.0011 µM.

`COC(=O)C1CN2CCC1CC2` (configuration not stated): the K app in experiment [1] was found to be 8.6 µM; in experiment [2], 0.023 µM.

As to `Cc1noc(C2CN3CCC2CC3)n1` (configuration not stated), the Log ratio in experiment [3] is 2.69. This molecule also registered a K app in experiment [4] of 0.0009 µM.

`CN(C)c1noc(C2CN3CCC2CC3)n1` (configuration not stated): the K app in experiment [1] turned out to be 0.2 µM; in experiment [2] it was 0.021 µM.

In the case of `Cc1noc(C2=CCCN(C)C2)n1`, the K app in experiment [1] turned out to be 1.8 µM; in experiment [2] it was 0.0046 µM.

Turning to `Cc1cnc(C2CN3CCC2CC3)o1` (configuration not stated), the K app was found to be 0.73 µM in experiment [1] and 0.04 µM in experiment [2].

For the molecule `Cc1ccc(C2CN3CCC2CC3)o1` (configuration not stated), in experiment [3], the Log ratio was 1.28. Further, the K app in experiment [1] worked out at 0.25 µM; in experiment [2], 0.013 µM.

Consider `COc1noc(C2CN3CCC2CC3)n1` (configuration not stated), for which the values for the K app in experiment [1] and in experiment [2] were 0.52 µM and 0.014 µM, respectively.

As for `c1coc(C2CN3CCC2CC3)n1` (configuration not stated), the figures for the K app in experiment [1] and in experiment [2] were 6.7 µM and 0.038 µM, respectively.

For the molecule `c1ccc(Cc2noc(C3CN4CCC3CC4)n2)cc1` (configuration not stated), the K app in experiment [1] was 0.07 µM; in experiment [2], 0.021 µM.

Turning to `CCc1noc(C2CN3CCC2CC3)n1` (configuration not stated), the K app in experiment [1] was 0.096 µM; in experiment [2], 0.0056 µM.

With `Cc1noc(C2=CN3CCC2CC3)n1`, the K app was found to be 15 µM in experiment [1] and 0.4 µM in experiment [2].

`CNc1noc(C2CN3CCC2CC3)n1` (configuration not stated): the K app turned out to be 2 µM in experiment [1] and 0.053 µM in experiment [2].

Turning to `Cc1coc(C2CN3CCC2CC3)n1` (configuration not stated), in experiment [3], the Log ratio was 1.72. Further, the figures for the K app in experiment [1] and in experiment [2] were 1.4 µM and 0.027 µM, respectively.

On to `Clc1noc(C2CN3CCC2CC3)n1` (configuration not stated), for which the Log ratio in experiment [3] came out at 2.6. For the same molecule, the K app came out at 0.19 µM in experiment [1] and 0.00048 µM in experiment [2].
